Test results taken from PubChem BioAssay (NCI).
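Interpolation was linear, between the two tested concentrations surrounding the appropriate level; five concentrations were tested over 48 hours in 96-well plates. GI50 = concentration required for 50% inhibition of growth. TGI is the concentration that stops growth completely.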

Legend:
Assay in all cases: NCI anticancer screen, dose series, 48 h
786-0 renal = tested on: 786-0 renal
A498 renal = tested on: A498 renal
A549 NSCLC = tested on: A549 NSCLC
ACHN renal = tested on: ACHN renal
BT-549 breast = tested on: BT-549 breast
CAKI-1 renal = tested on: CAKI-1 renal
CCRF-CEM leukemia = tested on: CCRF-CEM leukemia
COLO 205 colon = tested on: COLO 205 colon
DU-145 prostate = tested on: DU-145 prostate
EKVX NSCLC = tested on: EKVX NSCLC
HCC-2998 colon = tested on: HCC-2998 colon
HCT-116 colon = tested on: HCT-116 colon
HCT-15 colon = tested on: HCT-15 colon
HL-60(TB) leukemia = tested on: HL-60(TB) leukemia
HOP-62 NSCLC = tested on: HOP-62 NSCLC
HOP-92 NSCLC = tested on: HOP-92 NSCLC
HS 578T breast = tested on: HS 578T breast
HT29 colon = tested on: HT29 colon
IGROV1 ovarian = tested on: IGROV1 ovarian
K-562 leukemia = tested on: K-562 leukemia
KM12 colon = tested on: KM12 colon
LOX IMVI melanoma = tested on: LOX IMVI melanoma
M14 melanoma = tested on: M14 melanoma
MALME-3M melanoma = tested on: MALME-3M melanoma
MCF7 breast = tested on: MCF7 breast
MDA-MB-231 breast = tested on: MDA-MB-231 breast
MDA-MB-435 = tested on: MDA-MB-435
MOLT-4 leukemia = tested on: MOLT-4 leukemia
NCI-H226 lung = tested on: NCI-H226 lung
NCI-H23 lung = tested on: NCI-H23 lung
NCI-H460 lung = tested on: NCI-H460 lung
NCI-H522 lung = tested on: NCI-H522 lung
NCI/ADR-RES ovarian = tested on: NCI/ADR-RES ovarian
OVCAR-3 ovarian = tested on: OVCAR-3 ovarian
OVCAR-4 ovarian = tested on: OVCAR-4 ovarian
OVCAR-5 ovarian = tested on: OVCAR-5 ovarian
OVCAR-8 ovarian = tested on: OVCAR-8 ovarian
PC-3 prostate = tested on: PC-3 prostate
RPMI-8226 leukemia = tested on: RPMI-8226 leukemia
SF-268 CNS = tested on: SF-268 CNS
SF-295 CNS = tested on: SF-295 CNS
SF-539 CNS = tested on: SF-539 CNS
SK-MEL-2 melanoma = tested on: SK-MEL-2 melanoma
SK-MEL-28 melanoma = tested on: SK-MEL-28 melanoma
SK-MEL-5 melanoma = tested on: SK-MEL-5 melanoma
SK-OV-3 ovarian = tested on: SK-OV-3 ovarian
SN12C renal = tested on: SN12C renal
SNB-19 CNS = tested on: SNB-19 CNS
SNB-75 CNS = tested on: SNB-75 CNS
SR leukemia = tested on: SR leukemia
SW-620 colon = tested on: SW-620 colon
T-47D breast = tested on: T-47D breast
TK-10 renal = tested on: TK-10 renal
U251 CNS = tested on: U251 CNS
UACC-257 melanoma = tested on: UACC-257 melanoma
UACC-62 melanoma = tested on: UACC-62 melanoma
UO-31 renal = tested on: UO-31 renal

O=C(CCCCCCNC(=O)C(O)(O)C(F)(F)F)Nc1ncc(-c2ccccc2)s1
GI50 (786-0 renal): 3.8 µM | TGI (786-0 renal): > 23.5 µM | GI50 (A498 renal): 0.493 µM | TGI (A498 renal): 5.68 µM | GI50 (A549 NSCLC): 5.96 µM | TGI (A549 NSCLC): > 23.5 µM | GI50 (ACHN renal): 3.56 µM | TGI (ACHN renal): 15.3 µM | GI50 (BT-549 breast): 2.47 µM | TGI (BT-549 breast): 16.6 µM | GI50 (CAKI-1 renal): 5.6 µM | TGI (CAKI-1 renal): > 23.5 µM | GI50 (CCRF-CEM leukemia): 2.93 µM | TGI (CCRF-CEM leukemia): > 23.5 µM | GI50 (COLO 205 colon): 3.5 µM | TGI (COLO 205 colon): 10.5 µM | GI50 (DU-145 prostate): 5.26 µM | TGI (DU-145 prostate): > 23.5 µM | GI50 (EKVX NSCLC): 8.16 µM | TGI (EKVX NSCLC): > 23.5 µM | GI50 (HCC-2998 colon): 4.71 µM | TGI (HCC-2998 colon): 13.5 µM | GI50 (HCT-116 colon): 0.7 µM | TGI (HCT-116 colon): > 23.5 µM | GI50 (HCT-15 colon): 3.99 µM | TGI (HCT-15 colon): 10.5 µM | GI50 (HL-60(TB) leukemia): 3.53 µM | TGI (HL-60(TB) leukemia): > 23.5 µM | GI50 (HOP-62 NSCLC): 4.93 µM | TGI (HOP-62 NSCLC): > 23.5 µM | GI50 (HOP-92 NSCLC): 0.695 µM | TGI (HOP-92 NSCLC): 4.26 µM | GI50 (HS 578T breast): 2.62 µM | TGI (HS 578T breast): 18.4 µM | GI50 (HT29 colon): 2.72 µM | TGI (HT29 colon): > 23.5 µM | GI50 (IGROV1 ovarian): 3.23 µM | TGI (IGROV1 ovarian): 9.98 µM | GI50 (K-562 leukemia): 1.26 µM | TGI (K-562 leukemia): > 23.5 µM | GI50 (KM12 colon): 4.51 µM | TGI (KM12 colon): > 23.5 µM | GI50 (LOX IMVI melanoma): 2.52 µM | TGI (LOX IMVI melanoma): 5.79 µM | GI50 (M14 melanoma): 5.32 µM | TGI (M14 melanoma): > 23.5 µM | GI50 (MALME-3M melanoma): 1.79 µM | TGI (MALME-3M melanoma): 14.2 µM | GI50 (MCF7 breast): 7.19 µM | TGI (MCF7 breast): > 23.5 µM | GI50 (MDA-MB-231 breast): 2.48 µM | TGI (MDA-MB-231 breast): 14.9 µM | GI50 (MDA-MB-435): 4.45 µM | TGI (MDA-MB-435): > 23.5 µM | GI50 (MOLT-4 leukemia): 1.3 µM | TGI (MOLT-4 leukemia): > 23.5 µM | GI50 (NCI-H226 lung): 5.58 µM | TGI (NCI-H226 lung): > 23.5 µM | GI50 (NCI-H23 lung): 4.56 µM | TGI (NCI-H23 lung): > 23.5 µM | GI50 (NCI-H460 lung): 2.57 µM | TGI (NCI-H460 lung): > 23.5 µM | GI50 (NCI-H522 lung): 3.67 µM | TGI (NCI-H522 lung): 15.6 µM | GI50 (NCI/ADR-RES ovarian): 4.27 µM | TGI (NCI/ADR-RES ovarian): 17.1 µM | GI50 (OVCAR-3 ovarian): 2.38 µM | TGI (OVCAR-3 ovarian): 5.97 µM | GI50 (OVCAR-4 ovarian): 11.1 µM | TGI (OVCAR-4 ovarian): > 23.5 µM | GI50 (OVCAR-5 ovarian): 2.07 µM | TGI (OVCAR-5 ovarian): 13.6 µM | GI50 (OVCAR-8 ovarian): 2.9 µM | TGI (OVCAR-8 ovarian): > 23.5 µM | GI50 (PC-3 prostate): 3.39 µM | TGI (PC-3 prostate): > 23.5 µM | GI50 (RPMI-8226 leukemia): 1.96 µM | TGI (RPMI-8226 leukemia): > 23.5 µM | GI50 (SF-268 CNS): 5.58 µM | TGI (SF-268 CNS): 17.8 µM | GI50 (SF-295 CNS): 3.49 µM | TGI (SF-295 CNS): 8.88 µM | GI50 (SF-539 CNS): 5.63 µM | TGI (SF-539 CNS): > 23.5 µM | GI50 (SK-MEL-2 melanoma): 3.64 µM | TGI (SK-MEL-2 melanoma): 14.6 µM | GI50 (SK-MEL-28 melanoma): 3.29 µM | TGI (SK-MEL-28 melanoma): > 23.5 µM | GI50 (SK-MEL-5 melanoma): 3.46 µM | TGI (SK-MEL-5 melanoma): 7.22 µM | GI50 (SK-OV-3 ovarian): 3.51 µM | TGI (SK-OV-3 ovarian): 17.6 µM | GI50 (SN12C renal): 3.75 µM | TGI (SN12C renal): > 23.5 µM | GI50 (SNB-19 CNS): 4.81 µM | TGI (SNB-19 CNS): 22 µM | GI50 (SNB-75 CNS): 1.33 µM | TGI (SNB-75 CNS): > 23.5 µM | GI50 (SR leukemia): 1.01 µM | TGI (SR leukemia): > 23.5 µM | GI50 (SW-620 colon): 2.4 µM | TGI (SW-620 colon): 9.91 µM | GI50 (T-47D breast): 3.73 µM | TGI (T-47D breast): > 23.5 µM | GI50 (TK-10 renal): 0.679 µM | TGI (TK-10 renal): > 23.5 µM | GI50 (U251 CNS): 3.07 µM | TGI (U251 CNS): 10.8 µM | GI50 (UACC-257 melanoma): 4.91 µM | TGI (UACC-257 melanoma): > 23.5 µM | GI50 (UACC-62 melanoma): 1.65 µM | TGI (UACC-62 melanoma): 5.61 µM | GI50 (UO-31 renal): 3.72 µM | TGI (UO-31 renal): 14 µM
